Experimental data from the supplement of paper PMC10627819.

Legend:
Assay in all cases: Bliss interaction score (quartile over a dose matrix) (fitness difference); higher = more antagonism (negative = synergy)
S. pneumoniae D39V = system: S. pneumoniae D39V
Method in brief: (§1)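 Growth in each well was taken as OD595 at entry into stationary phase. Dividing by the plate's robust no-drug mean and capping at 1 gave fitness, and single-drug fitness was inferred from the combination data. The Bliss score, observed minus product-expected fitness, is summarised by quartiles over technical, biological and donor/recipient replicates.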

S. aureus Newman = system: S. aureus Newman
Method in brief: as §1

B. subtilis 168 = system: B. subtilis 168
Method in brief: as §1

S. aureus DSM 20231 = system: S. aureus DSM 20231
Method in brief: as §1
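Further: first quartile when negative (synergy) and third quartile when positive (antagonism).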

SMILES | Bliss interaction score (S. pneumoniae D39V) | Bliss interaction score (S. aureus Newman) | Bliss interaction score (B. subtilis 168) | Bliss interaction score (S. aureus DSM 20231)
CO/N=C(\C(=O)N[C@@H]1C(=O)N2C(C(=O)[O-])=C(C[N+]3(C)CCCC3)CS[C@H]12)c1csc(N)n1 [Cefepime] + CO/N=C(\C(=O)N[C@@H]1C(=O)N2C(C(=O)O)=C(COC(N)=O)CS[C@H]12)c1ccco1 [Cefuroxime] | -0.0435 | 0.0741 | -0.0417 | 0.0866
Cn1nnc(-c2ccc(-c3ccc(N4C[C@H](CO)OC4=O)cc3F)cn2)n1 [Tedizolid] + Oc1cc(Cl)ccc1Oc1ccc(Cl)cc1Cl [Triclosan] | -0.075 | 0.037 | 0.0378 | -0.153
CCCCCCCCCC(=O)N[C@@H](Cc1c[nH]c2ccccc12)C(=O)N[C@H](CC(N)=O)C(=O)N[C@@H](CC(=O)O)C(=O)N[C@@H]1C(=O)NCC(=O)N[C@@H](CCCN)C(=O)N[C@@H](CC(=O)O)C(=O)N[C@H](C)C(=O)N[C@@H](CC(=O)O)C(=O)NCC(=O)N[C@H](CO)C(=O)N[C@@H]([C@H](C)CC(=O)O)C(=O)N[C@@H](CC(=O)c2ccccc2N)C(=O)O[C@@H]1C [Daptomycin] + Oc1cc(Cl)ccc1Oc1ccc(Cl)cc1Cl [Triclosan] | 0.0768 | -0.0264 | -0.0488 | 0.0576
CO/N=C(\C(=O)N[C@@H]1C(=O)N2C(C(=O)[O-])=C(C[N+]3(C)CCCC3)CS[C@H]12)c1csc(N)n1 [Cefepime] + O=C(O[C@@H]1Cc2c(O)cc(O)cc2O[C@@H]1c1cc(O)c(O)c(O)c1)c1cc(O)c(O)c(O)c1 [EGCG] | 0.0602 | -0.0498 | 0.0402 | -0.159
CN(C)C(=O)C(CCN1CCC(O)(c2ccc(Cl)cc2)CC1)(c1ccccc1)c1ccccc1 [Loperamide] + CC[C@H]1OC(=O)[C@H](C)C(=O)[C@H](C)[C@@H](O[C@@H]2O[C@H](C)C[C@H](N(C)C)[C@H]2O)[C@](C)(OC)C[C@@H](C)C(=O)[C@H](C)[C@H]2N(CCCCn3cnc(-c4cccnc4)c3)C(=O)O[C@]12C [Telithromycin] | 0.0977 | -0.024 | 0.0814 | 0.0619
CO/N=C(\C(=O)N[C@@H]1C(=O)N2C(C(=O)[O-])=C(C[N+]3(C)CCCC3)CS[C@H]12)c1csc(N)n1 [Cefepime] + CN[C@H](CC(C)C)C(=O)N[C@H]1C(=O)N[C@@H](CC(N)=O)C(=O)N[C@H]2C(=O)N[C@H]3C(=O)N[C@H](C(=O)N[C@H](C(=O)O)c4cc(O)cc(O)c4-c4cc3ccc4O)[C@H](O[C@H]3C[C@](C)(N)[C@@H](O)[C@H](C)O3)c3ccc(c(Cl)c3)Oc3cc2cc(c3O[C@@H]2O[C@H](CO)[C@@H](O)[C@H](O)[C@H]2O[C@H]2C[C@](C)(NCc3ccc(-c4ccc(Cl)cc4)cc3)[C@@H](O)[C@H](C)O2)Oc2ccc(cc2Cl)[C@H]1O [Oritavancin] | -0.0811 | 0.0749 | 0.0342 | 0.0977
CC1(C)S[C@@H]2[C@H](NC(=O)[C@H](N)c3ccc(O)cc3)C(=O)N2[C@H]1C(=O)O [Amoxicillin] + C1=CC(=CC(=C1)Cl)NN=C(C#N)C#N [CCCP] | -0.0978 | -0.0504 | 0.115 | -0.0295
C[C@H]1COc2c(N3CCN(C)CC3)c(F)cc3c(=O)c(C(=O)O)cn1c23 [Levofloxacin] + CN[C@H](CC(C)C)C(=O)N[C@H]1C(=O)N[C@@H](CC(N)=O)C(=O)N[C@H]2C(=O)N[C@H]3C(=O)N[C@H](C(=O)N[C@H](C(=O)O)c4cc(O)cc(O)c4-c4cc3ccc4O)[C@H](O[C@H]3C[C@](C)(N)[C@@H](O)[C@H](C)O3)c3ccc(c(Cl)c3)Oc3cc2cc(c3O[C@@H]2O[C@H](CO)[C@@H](O)[C@H](O)[C@H]2O[C@H]2C[C@](C)(NCc3ccc(-c4ccc(Cl)cc4)cc3)[C@@H](O)[C@H](C)O2)Oc2ccc(cc2Cl)[C@H]1O [Oritavancin] | -0.0616 | 0.0454 | 0.031 | 0.0291
CCCCCCCCCC(=O)N[C@@H](Cc1c[nH]c2ccccc12)C(=O)N[C@H](CC(N)=O)C(=O)N[C@@H](CC(=O)O)C(=O)N[C@@H]1C(=O)NCC(=O)N[C@@H](CCCN)C(=O)N[C@@H](CC(=O)O)C(=O)N[C@H](C)C(=O)N[C@@H](CC(=O)O)C(=O)NCC(=O)N[C@H](CO)C(=O)N[C@@H]([C@H](C)CC(=O)O)C(=O)N[C@@H](CC(=O)c2ccccc2N)C(=O)O[C@@H]1C [Daptomycin] + CN[C@H](CC(C)C)C(=O)N[C@H]1C(=O)N[C@@H](CC(N)=O)C(=O)N[C@H]2C(=O)N[C@H]3C(=O)N[C@H](C(=O)N[C@H](C(=O)O)c4cc(O)cc(O)c4-c4cc3ccc4O)[C@H](O[C@H]3C[C@](C)(N)[C@@H](O)[C@H](C)O3)c3ccc(c(Cl)c3)Oc3cc2cc(c3O[C@@H]2O[C@H](CO)[C@@H](O)[C@H](O)[C@H]2O[C@H]2C[C@](C)(NCc3ccc(-c4ccc(Cl)cc4)cc3)[C@@H](O)[C@H](C)O2)Oc2ccc(cc2Cl)[C@H]1O [Oritavancin] | 0.0853 | 0.0913 | -0.0305 | 0.0891
C[C@H]1COc2c(N3CCN(C)CC3)c(F)cc3c(=O)c(C(=O)O)cn1c23 [Levofloxacin] + CC1(C)S[C@@H]2[C@H](NC(=O)Cc3ccccc3)C(=O)N2[C@H]1C(=O)O [PenicillinG] | -0.103 | -0.0602 | 0.0528 | 0.0432
CCN(CC)CCOC(=O)c1ccc(N)cc1 [Procaine] + Oc1cc(Cl)ccc1Oc1ccc(Cl)cc1Cl [Triclosan] | -0.0644 | -0.0125 | 0.0507 | 0.0864
C[C@H]1COc2c(N3CCN(C)CC3)c(F)cc3c(=O)c(C(=O)O)cn1c23 [Levofloxacin] + CC[C@H]1OC(=O)[C@H](C)C(=O)[C@H](C)[C@@H](O[C@@H]2O[C@H](C)C[C@H](N(C)C)[C@H]2O)[C@](C)(OC)C[C@@H](C)C(=O)[C@H](C)[C@H]2N(CCCCn3cnc(-c4cccnc4)c3)C(=O)O[C@]12C [Telithromycin] | 0.0737 | 0.0408 | 0.0654 | 0.0361
